According to the supplement of paper PMC11061612:

What was measured:
Test in all cases: Bliss excess, mean over the matrix (fraction); higher = more synergy
[1] = test system: NCI-H2373 (Mesothelioma)
In short: (§1)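 Cell lines in DMEM/F12 or RPMI with 10% FBS were plated in 1536-well plates, held 24 hours at 37°C, 5% CO2, then given two-drug dose matrices for 72 hours (DMSO typically 0.2%). Viability was read by CellTiter-Glo 2.0 luminescence and scaled as inhibition from 0 (vehicle wells) to 1 (blank wells). Combination Emax is the second-highest inhibition in the matrix; Bliss excess is observed combination effect minus expected EA + EB − EA·EB, EA and EB being single-agent effects.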

[2] = test system: SUP-M2 (T-Cell Non-Hodgkin's Lymphoma)
In short: as §1

[3] = test system: NCI-H596 (Other Solid Carcinomas)
In short: as §1

[4] = test system: MOLT-13 (T-Lymphoblastic Leukemia)
In short: as §1

[5] = test system: LCLC-103H (Non-Small Cell Lung Carcinoma)
In short: as §1

[6] = test system: SK-N-SH (Neuroblastoma)
In short: as §1

[7] = test system: NB1 (Neuroblastoma)
In short: as §1

[8] = test system: Raji (Burkitt's Lymphoma)
In short: as §1

[9] = test system: UACC-257 (Melanoma)
In short: as §1

[10] = test system: MS-1 (Small Cell Lung Carcinoma)
In short: as §1

[11] = test system: SKG-IIIa (Cervical Carcinoma)
In short: as §1

[12] = test system: TUR (Acute Myeloid Leukemia)
In short: as §1

[13] = test system: T47D (Breast Carcinoma)
In short: as §1

[14] = test system: SNU-C2B (Colorectal Carcinoma)
In short: as §1

[15] = test system: NCI-H226 (Mesothelioma)
In short: as §1

[16] = test system: AM-38 (Glioblastoma)
In short: as §1

[17] = test system: IST-MEL1 (Melanoma)
In short: as §1

[18] = test system: CL-11 (Colorectal Carcinoma)
In short: as §1

[19] = test system: CPC-N (Small Cell Lung Carcinoma)
In short: as §1

[20] = test system: ES6 (Ewing's Sarcoma)
In short: as §1

SMILES	Bliss excess [1]	Bliss excess [2]	Bliss excess [3]	Bliss excess [4]	Bliss excess [5]	Bliss excess [6]	Bliss excess [7]	Bliss excess [8]	Bliss excess [9]	Bliss excess [10]	Bliss excess [11]	Bliss excess [12]	Bliss excess [13]	Bliss excess [14]	Bliss excess [15]	Bliss excess [16]	Bliss excess [17]	Bliss excess [18]	Bliss excess [19]	Bliss excess [20]
COc1nnc2ccc(N3CCC(c4ccc(OCCN5CCN(C)C(=O)[C@H]5C)cc4)CC3)nn12 [AZD5153] + C=CCn1c(=O)c2cnc(Nc3ccc(N4CCN(C)CC4)cc3)nc2n1-c1cccc(C(C)(C)O)n1 [AZD1775] (first compound max 1 µM, partner max 1 µM)	-0.0589	-0.0123	-0.131	-0.0319	-0.0128	-0.0602	-0.0461	-0.105	0.0034	-0.0687	-0.0221	-0.0252	-0.0262	-0.035	-0.0349	-0.0594	-0.0398	-0.0376	-0.0862	-0.0553
COc1nnc2ccc(N3CCC(c4ccc(OCCN5CCN(C)C(=O)[C@H]5C)cc4)CC3)nn12 [AZD5153] + CC1(C)CCC(CN2CCN(c3ccc(C(=O)NS(=O)(=O)c4ccc(NCC5CCOCC5)c([N+](=O)[O-])c4)c(Oc4cnc5[nH]ccc5c4)c3)CC2)=C(c2ccc(Cl)cc2)C1 [Venetoclax] (first compound max 1 µM, 7x7, partner max 1 µM)	-0.0769	-0.0172	-0.0701	0.11	-0.0404	0.0011	-0.0863	-0.0247	-0.0555	0.0094	-0.068	-0.0224	-0.0713	-0.0598	-0.0192	-0.135	-0.0812	-0.0302	0.0046	-0.0327
COc1nnc2ccc(N3CCC(c4ccc(OCCN5CCN(C)C(=O)[C@H]5C)cc4)CC3)nn12 [AZD5153] + CCN(CCO)CCCOc1ccc2c(Nc3cc(CC(=O)Nc4cccc(F)c4)[nH]n3)ncnc2c1 [AZD2811] (first compound max 1 µM, 7x7, partner max 1 µM)	-0.0642	-0.0132	-0.0612	-0.008	-0.0104	-0.0658	-0.0071	0.0314	0.0076	-0.0171	-0.0193	0.131	-0.0182	-0.0223	-0.0697	0.039	-0.0196	-0.0529	-0.0601	-0.0476
COc1nnc2ccc(N3CCC(c4ccc(OCCN5CCN(C)C(=O)[C@H]5C)cc4)CC3)nn12 [AZD5153] + C[C@@H]1COCCN1C2=NC(=NC(=C2)C3(CC3)[S@](=N)(=O)C)C4=C5C=CNC5=NC=C4 [AZD6738] (first compound max 1 µM, 7x7, partner max 10 µM)	-0.0263	-0.0205	-0.0028	0.02	0.0525	-0.0611	0.0095	-0.0198	0.0581	-0.0701	0.0105	-0.0046	0.0796	0.0233	0.0038	0.0447	0.0206	-0.0383	-0.0692	0.0339
COc1nnc2ccc(N3CCC(c4ccc(OCCN5CCN(C)C(=O)[C@H]5C)cc4)CC3)nn12 [AZD5153] + Cc1c2c(nn1C)CSCc1cc(n(C)n1)CSc1cc(c3ccccc3c1)OCCCc1c(C(=O)O)n(C)c3c-2c(Cl)ccc13 [AZD5991] (first compound max 1 µM, 7x7, partner max 1 µM)	-0.0104	-0.0372	-0.0532	-0.0503	0.0179	-0.0334	-0.0211	-0.0119	-0.019	-0.0151	-0.0782	0.0507	0.0003	-0.0319	-0.0209	-0.0083	-0.0116	-0.0499	0.0163	-0.0033
COc1nnc2ccc(N3CCC(c4ccc(OCCN5CCN(C)C(=O)[C@H]5C)cc4)CC3)nn12 [AZD5153] + Cn1cnc2c(F)c(Nc3ccc(Br)cc3Cl)c(C(=O)NOCCO)cc21 [Selumetinib] (first compound max 1 µM, 7x7, partner max 10 µM)	-0.0666	-0.0138	-0.0344	0.085	0.0325	-0.0142	-0.0454	-0.0445	0.0284	-0.0665	0.0128	-0.0567	0.0101	0.019	-0.045	-0.0064	0.0304	0.0425	-0.0222	0.053
Cc1c2c(nn1C)CSCc1cc(n(C)n1)CSc1cc(c3ccccc3c1)OCCCc1c(C(=O)O)n(C)c3c-2c(Cl)ccc13 [AZD5991] + C1CN(CCC1(C(=O)N[C@@H](CCO)C2=CC=C(C=C2)Cl)N)C3=NC=NC4=C3C=CN4 [Capivasertib] (first compound max 1 µM, 7x7, partner max 3 µM)	-0.0671	-0.0079	-0.0035	-0.0135	-0.0025	0.011	-0.0186	0.0312	0.0061	0.0265	-0.0231	0.0937	-0.0887	-0.0161	-0.0473	0.0026	0.0025	-0.0234	0.0177	-0.0055
Cc1c2c(nn1C)CSCc1cc(n(C)n1)CSc1cc(c3ccccc3c1)OCCCc1c(C(=O)O)n(C)c3c-2c(Cl)ccc13 [AZD5991] + C=CCn1c(=O)c2cnc(Nc3ccc(N4CCN(C)CC4)cc3)nc2n1-c1cccc(C(C)(C)O)n1 [AZD1775] (first compound max 1 µM, partner max 1 µM)	-0.0079	0.0007	-0.0682	-0.0071	0.0101	-0.0163	-0.0156	-0.013	0.0163	-0.0462	0.0071	0.0189	-0.0369	0.0194	0.018	-0.0015	-0.0318	-0.0112	-0.0453	0.0814
Cc1c2c(nn1C)CSCc1cc(n(C)n1)CSc1cc(c3ccccc3c1)OCCCc1c(C(=O)O)n(C)c3c-2c(Cl)ccc13 [AZD5991] + CC1(C)CCC(CN2CCN(c3ccc(C(=O)NS(=O)(=O)c4ccc(NCC5CCOCC5)c([N+](=O)[O-])c4)c(Oc4cnc5[nH]ccc5c4)c3)CC2)=C(c2ccc(Cl)cc2)C1 [Venetoclax] (first compound max 1 µM, 7x7, partner max 1 µM)	-0.0391	0.0286	-0.0102	0.0266	-0.0347	0.151	-0.0178	0.0287	-0.0485	0.0089	-0.0115	0.138	-0.0042	-0.0289	-0.0582	-0.0091	0.009	-0.0254	-0.017	-0.0065
Cc1c2c(nn1C)CSCc1cc(n(C)n1)CSc1cc(c3ccccc3c1)OCCCc1c(C(=O)O)n(C)c3c-2c(Cl)ccc13 [AZD5991] + CN(C)CCCOc1ccc(-c2ccc3ncc4c(c3c2)n(C2CCOCC2)c(=O)n4C)cn1 [AZD0156] (first compound max 1 µM, 7x7, partner max 1 µM)	-0.0069	-0.0012	-0.0088	-0.0198	0.0401	0.0204	-0.0522	-0.0213	-0.0064	-0.0347	0.0104	0.0377	0.0093	0.0051	0.0125	0.0291	-0.0282	-0.0081	-0.0129	-0.0113
Cc1c2c(nn1C)CSCc1cc(n(C)n1)CSc1cc(c3ccccc3c1)OCCCc1c(C(=O)O)n(C)c3c-2c(Cl)ccc13 [AZD5991] + C[C@@H]1COCCN1C2=NC(=NC(=C2)C3(CC3)[S@](=N)(=O)C)C4=C5C=CNC5=NC=C4 [AZD6738] (first compound max 1 µM, 7x7, partner max 10 µM)	0.0293	0.0505	-0.0172	0.0186	0.0224	-0.0225	0.0343	0.055	0.0278	-0.0205	0.0106	0.096	0.0333	-0.0199	0.0298	0.0312	-0.0344	0.0322	-0.024	0.0289
Cc1c2c(nn1C)CSCc1cc(n(C)n1)CSc1cc(c3ccccc3c1)OCCCc1c(C(=O)O)n(C)c3c-2c(Cl)ccc13 [AZD5991] + Cc1cc2ncnn2cc1Nc1ncc2c(n1)n(C1CCOCC1)c(=O)n2C [AZD7648] (first compound max 1 µM, 7x7, partner max 10 µM)	-0.015	-0.0146	0.0056	-0.0085	-0.0543	-0.0211	-0.0197	0.0794	-0.0242	-0.0158	-0.0261	-0.0488	-0.0159	-0.012	-0.061	-0.0347	-0.0048	-0.0533	-0.0109	-0.0745
C[C@@H]1COCCN1c1cc(C2([S@](C)(=N)=O)CC2)nc(-c2ccnc3[nH]ccc23)n1 [AZD6738] + O=C(c1cc(Cc2n[nH]c(=O)c3ccccc23)ccc1F)N1CCN(C(=O)C2CC2)CC1 [Olaparib] (first compound max 10 µM, 7x7, partner max 10 µM)	0.0165	0.0646	-0.0841	0.0645	0.0482	-0.0667	-0.058	-0.0204	-0.0009	0.0056	0.0236	0.0244	0.0359	0.0123	-0.0156	0.0226	0.035	0.0013	0.015	0.0128
Cc1cc2ncnn2cc1Nc1ncc2c(n1)n(C1CCOCC1)c(=O)n2C [AZD7648] + C=CCn1c(=O)c2cnc(Nc3ccc(N4CCN(C)CC4)cc3)nc2n1-c1cccc(C(C)(C)O)n1 [AZD1775] (first compound max 10 µM, partner max 1 µM)	-0.0322	0.0377	-0.0342	0.0144	0.002	-0.0069	-0.0015	-0.0359	0.0334	-0.0401	0.0237	0.019	-0.0146	-0.0404	-0.004	0.0125	-0.011	0.0119	-0.0055	-0.0031
